Here are results for two compounds from patent US20110136880A1, “Latrunculin-Based Macrolides and Their Uses” (priority 2009, published 2011).

Each structure is given as a SMILES string. Like-named read-outs stand apart in the source and are kept apart here. Where only a bound is given, the exact number is not on record here.

Test [1] concerns microvessel density marker CD31 in endothelial colony forming cells (ECFCs). As to the kind of experiment: Angiogenesis inhibition assay (CD31 in ECFCs). The format is cell-based. The procedure: Effects on Angiogenesis. Angiogenesis inhibition assays were conducted using endothelial colony forming cells (ECFCs). The microvessel density marker CD31 was quantified using confocal laser scanning microscopy and immunohistochemistry.

Another test has as its system MDA-MB-231. The test can be described thus: MTT proliferation assay, MDA-MB-231. The format is cell-based, human. Particulars: for IC50: Homo sapiens, MDA-MB-231, MTT, 72 h, mean ± SEM, read-out: IC50 (μM) MDA-MB-231. From the text:
(§1) The antiproliferative and anti-invasive activities of compounds 1-14 were quantified using MTT and cell invasion assay kits, respectively. Latrunculin A (compound 1) was used as a positive control in all biological assays, because it is known to be an actin polymerization inhibitor, with cytotoxic, antiproliferative, and anti-invasive activities. The 3-[4,5-dimethylthiazol-2-yl]-2,5-diphenyl tetrazolium bromide (MTT) assay selectively detects living cells in a quantitative, colorimetric fashion, based on a living cell's ability to reduce MTT to an insoluble, purple formazan dye. The MTT assay is routinely used to assess cytotoxicity and proliferation inhibition activities. The antiproliferative activities of compounds 1-14 were measured against two human mammary gland adenocarcinoma cell lines, MCF7 and MDA-MB-231, and against human prostate cancer cells PC-3 at five different doses (0.1, 0.5, 1, 10, and 50 μM). While many of the semisynthetic latrunculins had similar activity levels, some had greater activity than compound 1. […] Although the MDA-MB-231 cells were more resistant than MCF7 against most latrunculin derivatives tested, compound 14 had potent activity against both cell lines.
(§2) MTT Proliferation Assay. The growth of MCF7, MDA-MB-231, and PC-3 cancer cell lines was measured using an MTT kit (TACS™, TREVIGEN®, Inc.). Exponentially growing cells were plated in a 96-well plate at a density of 8×10^3 cells per well, and allowed to attach for 24 h. Complete growth medium was then replaced with 100 μL of RPMI serum-free medium containing various concentrations (50, 10, 1, 0.5, 0.1 μM) of the particular test compound. Culture continued at 37° C. under 5% CO2. After 72 h of culture, the cells were treated with MTT solution (10 μL/well) at 37° C. for 4 h. The color reaction was stopped by adding solubilization/stop solution (100 μL/well). Incubation continued at 37° C. continued to completely dissolve the formazan dye product. Absorbance of the samples was determined at 570 nm with an ELISA plate reader (BioTek, VT). The number of cells per well was calculated against a standard curve that had been prepared by plating various concentrations of cells, as determined by hemocytometer, at the start of each experiment. IC50 for each compound was calculated using a nonlinear regression curve fit of log concentration versus the number of cells/well, using GraphPad Prism 5.0 (GraphPad Software, La Jolla, Calif.).
On the technique in general: Tetrazolium dyes change colour on reduction, which living cells bring about.

For another test, the system named is PC-3. The test can be described thus: MTT proliferation assay, PC-3. The format is cell-based, human. The following applies: for IC50: Homo sapiens, PC-3, MTT, 72 h, read-out: IC50 (μM) PC-3.
From the text: as §1, §2

The test system of the next test is MDA-MB-231 cells. As to the kind of experiment: Cultrex BME cell invasion assay. The format is cell-based, human. The following applies: for fold more active against cell invasion than latrunculin A (compound 1): 0.5 μM. As to the method:
The anti-invasive activities of compounds 1-14 were measured using a 96 well basement membrane extract (BME) cell invasion assay kit against the highly metastatic MDA-MB-231 cells. This assay employs a simplified Boyden Chamber with a polyethylene terephthalate membrane (8 μm pore size). Cell invasion was quantified using calcein-acetomethylester (calcein-AM). Cells internalize calcein-AM; intracellular esterases then cleave the acetomethylester moiety to generate free calcein. Free calcein fluoresces brightly. This fluorescence may be used to quantify the number of cells that have invaded across the BME. To correlate the anti-invasive activities of the latrunculin A derivatives with their actin-disrupting activities, compounds 1-14 were each tested at non-toxic concentrations. […] Accordingly, all compounds were tested at 0.1, 0.5, and 1.0 μM. Compound 3 killed 17% of MDA-MB-231 cells at 1.0 μM, while the same dose of compound 3 inhibited 95% of MDA-MB-231 cells' invasion. […] The anti-invasive activities of compounds 1-14 are attributed primarily to the inhibition of actin polymerization, not to cell death per se.
Cultrex® Cell Invasion Assay. Anti-invasive activities were measured using Trevigen's Cultrex® Cell Invasion Assay as described in K. Tamilarasan et al., BMC Cell Biol. 2006, 7, 17-30; and P. Borghesani et al., Development. 2002, 6, 1435-1442. About 50 μL of basement membrane extract (BME) coat was added to each well. After incubation for 4 h at 37° C. under 5% CO2, 50,000 MDA-MB-231 cells in 50 μL of serum free RPMI medium were added to each well in the top chamber, along with the test compound at one of several concentrations (0.1, 0.5, 1 μM). About 150 μL of RPMI medium was added to the lower chamber in 10% FBS and penicillin/streptomycin, using fibronectin ([…]) and N-formyl-met-leu-phe (10 nM) as chemoattractants. Cells were allowed to migrate to the lower chamber at 37° C. under 5% CO2. After 24 h, the top and bottom chambers were aspirated and washed with the washing buffer that had been supplied with the kit. About 100 μL of Cell Dissociation Solution/Calcein-AM solution was added to the bottom chamber, and the cells were incubated at 37° C. under CO2 for 1 h. Briefly, the cells internalize calcein-AM, and then the intracellular esterases cleave the AM moiety to generate free calcein. […] The number of cells that had invaded through the BME coat was calculated using a standard curve.

Another test has as its system HeLa cells. The test can be described thus: HeLa cell G2/M assays. The format is cell-based. An excerpt:
This assay measures HeLa cell proliferation, apoptosis, DNA content and condensation, cyclin B, and phosphor-histone H3.

For another test, the system named is MCF7. The test can be described thus: MTT proliferation assay, MCF7. The class given is cell-based, human. The following applies: for IC50: Homo sapiens, MCF7, MTT, 72 h, mean ± SEM, read-out: IC50 (μM) MCF7.
From the text: as §1, §2

As for `COc1ccc(CC(=O)N2C(=O)SC[C@H]2[C@@]2(OC)C[C@H]3C[C@@H](CC[C@H](C)/C=C\C=C\CC/C(C)=C\C(=O)O3)O2)cc1` [Compound 11, 17-O-Methyl-N-(7′-methoxyphenylacetyl)latrunculin A], the inhibition at 2 µM in test [1] was 100%. In test [1], this compound displayed an inhibition at 10 µM of 100%. The IC50 in test [1] (read-out: IC50 CD31 in ECFCs) is less than 43 nM; in the test on MDA-MB-231 it was 26.2 ± 3.91 µM; in the test on PC-3, 19.8 µM; in the test on MCF7, 15.4 ± 1.21 µM. Further, in the test on MDA-MB-231 cells, the “fold more active against cell invasion than latrunculin A (compound 1)” value was determined as 4.6 fold. Further, the “times greater inhibition against G2-M-phase HeLa cells compared to nocodazole” value with HeLa cells (various G2_M assays) is on record as 3.5-51.0 times.

In test [1], `C/C1=C/C(=O)O[C@@H]2C[C@@H](CC[C@H](C)/C=C\C=C\CC1)O[C@@](O)([C@@H]1CSC(=O)N1CO)C2` [Compound 14, N-Hydroxymethyllatrunculin A] yielded an inhibition at 2 µM of 100%. Moreover, 10 µM produced 100% inhibition in test [1]. The IC50 in test [1] (read-out: IC50 CD31 in ECFCs) was 63 nM; in test [1] (read-out: antiangiogenic activity IC50 range), 40 to 820 nM; in the test with MDA-MB-231 it was 2.99 ± 0.15 µM; with PC-3 it was 0.36 µM; in the test with MCF7 it was 0.12 ± 0.01 µM. In the test with MDA-MB-231 (assessed at 1 μM), the “factor of greater activity than compound 1, MDA-MB-231 proliferation assay” value is given as 1.4. In addition, the “fold increase in activity against PC-3 versus compound 1” value in the test on PC-3 (relative to compound 1) was found to be 10.8 fold. In addition, the “fold more active against cell invasion than latrunculin A (compound 1)” value in the test with MDA-MB-231 cells came to 2.1 fold. The “factor of greater activity than compound 1, MDA-MB-231 invasion assay” value in the test on MDA-MB-231 cells (assessed at 1 μM) was 2.7. For the same compound, the “dose range of strong growth inhibition of HeLa cells at early interphase” value in the test on HeLa cells (flow cytometry) is 0.04 to 1.25 µM. Moreover, in the test on HeLa cells (less active than compound 11), the “activity in G2_M assays compared with nocodazole” value is on record as “greater activity than did nocodazole”. Moreover, the “factor of greater activity than compound 1, MCF7 proliferation assay” value with MCF7 (assessed at 1 μM) is recorded as 4. Moreover, the “fold increase in activity against MCF7 versus compound 1” value with MCF7 (relative to compound 1) amounted to 4.0 fold.

The term inhibition denotes the relative decrease from the control value, in per cent. One may read the IC50 as the concentration that gives 50% inhibition.
